The record followed here is US20040147531A1, “Amidine derivatives for treating amyloidosis” (priority 2001, published 2004).

SMILES strings stand for the structures.

T1 sequence (P05067 672-711 limits assumed): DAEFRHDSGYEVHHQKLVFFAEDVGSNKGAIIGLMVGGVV

The test has as its target T1, Aβ40 (Homo sapiens, UniProt P05067).
T1 construct: 200 μM of a test compound and 20 μM of solubilized Aβ40
The test is described as follows: mass spectroscopy (MS) assay, binding to Aβ. Details: key: “+” = active; “−” = inactive; “pr” = promoting. The settings on record: 200 μM test compound, 20 μM solubilized Aβ40, pH 7.4; ability to bind to Aβ. The procedure: Test compounds were purchased from commercial sources or synthesized and screened by thioflavin T fluorescent assay (“ThT assay”). Alternatively, one could screen test compounds by circular dichroism (“CD”), electron microscopy (“EM”), or mass spectroscopy (“MS”) assays.
And in the mass spectroscopy (“MS”) assay, samples were prepared as aqueous solutions containing 20% ethanol, 200 μM of a test compound and 20 μM of solubilized Aβ40. The pH value of each sample was adjusted to 7.4 (±0.2) by addition of 0.1% aqueous sodium hydroxide. The solutions were then analyzed by electrospray ionization mass spectroscopy using a Waters ZQ 4000 mass spectrometer. Samples were introduced by direct infusion at a flow-rate of 25 μL/min within 2 hr. after sample preparation. The source temperature was kept at 70° C. and the cone voltage was 20 V for all the analysis. Data were processed using Masslynx 3.5 software.
In the case of `Cl.N=C(N)c1ccc(OCCCOc2ccc(CCC(=O)O)cc2)cc1` [Compound 40], the “MS Assay” value is on record as “−”.
Then `Cl.N=C(N)c1ccc(OCCCCCCCC(=O)O)cc1` [Compound 42], with “+”; and `N=C(N)c1ccc(OCCCCCCCCCBr)cc1` [Compound 43], with “+”.
Consider `Br.N=C(N)c1ccc(OCCCCCCCCBr)cc1` [Compound 44], for which the “MS Assay” value is reported as “+”.
On to `Cl.N=C(N)c1ccc(OCCCCCCCCC(=O)O)cc1` [Compound 45], for which the “MS Assay” value is given as “+”.
The value for `N=C(N)c1ccc(-c2cc3ccc(C(=N)N)cc3[nH]2)cc1` [Compound 47] was “−”.
Turning to `Cl.Cl.N=C(N)Cc1ccc(OCCCCCOc2ccc(CC(=N)N)cc2)cc1` [Compound 48], the “MS Assay” value is “+”.
In the case of `Cl.Cl.N=C(N)Nc1ccc(OCCCCCOc2ccc(NC(=N)N)cc2)cc1` [Compound 49], the “MS Assay” value is “+”.
Turning to `Cc1c(-c2ccc(C(=N)N)cc2)oc(-c2ccc(C(=N)N)cc2)c1C` [Compound 57], the “MS Assay” value was “+”.
Then `COc1ccc2c(c1)[nH]c1cc(C(=N)N)ccc12` [Compound 59], with “+”; and `c1cc2c(cc1C1=NCCN1)c1cc(C3=NCCN3)ccc1n2CCCCCn1c2ccc(C3=NCCN3)cc2c2cc(C3=NCCN3)ccc21` [Compound 63], with “+”.
Consider `N=C(N)c1ccc(COc2ccc([N+](=O)[O-])cc2)cc1` [Compound 67], for which the “MS Assay” value is “−”.
As to `N=C(N)c1cccc(OCc2ccccc2)c1` [Compound 68], the “MS Assay” value is recorded as “−”.
The value for `Cc1cc(-c2nc3cc(C(=N)N)ccc3[nH]2)c(C)cc1-c1nc2cc(C(=N)N)ccc2[nH]1` [Compound 73] was “+”; that for `N=C(N)c1cccc(COc2cccc3c(OCc4cccc(C(=N)N)c4)cccc23)c1` [Compound 77] was “+”.
On to `N=C(N)c1cccc(OCCC(O)COc2cccc(C(=N)N)c2)c1` (centres unmarked) [Compound 79], for which the “MS Assay” value is listed as “+”.
The value for `N=C(N)c1ccc2[nH]c(Cc3nc4cc([N+](=O)[O-])ccc4[nH]3)nc2c1` [Compound 80] was “+”; that for `N=C(N)c1ccc2[nH]c(-c3ccccc3)nc2c1` [Compound 81] was “+”; that for `N=C(N)c1ccc(-c2cc(-c3cccc(C(=N)N)c3)on2)cc1` [Compound 82] was “−”.
`COc1cc(C2=NCCN2)ccc1OCCCOc1ccc(C2=NCCN2)cc1OC` [Compound 85]: the “MS Assay” value is reported as “−”.
As for `COc1cc(C(=N)N)ccc1OC/C=C\COc1ccc(C(=N)N)cc1OC` [Compound 86], the “MS Assay” value was “+”.
As to `c1cc2[nH]c(-c3ccc4[nH]c(CCc5nc6cc(-c7nc8cc(C9=NCCN9)ccc8[nH]7)ccc6[nH]5)nc4c3)nc2cc1C1=NCCN1` [Compound 87], the “MS Assay” value is on record as “+”.
For `CCCCNC(=N)c1ccc2nc(-c3ccc(CCc4ccc(-c5nc6ccc(C(=N)NCCCC)cc6[nH]5)cc4)cc3)[nH]c2c1` [Compound 89], the “MS Assay” value is reported as “+”.
For the compound `CC(C)NC(=N)c1ccc(COc2ccc3ccc(OCc4ccc(C(=N)NC(C)C)cc4)cc3c2)cc1` [Compound 90], the “MS Assay” value is reported as “+”.
Then `CC(C)NC(=N)c1cccc(COc2ccc3ccc(OCc4cccc(C(=N)NC(C)C)c4)cc3c2)c1` [Compound 91], with “+”; and `N=C(N)c1ccc(OCCCCCOc2ccc(-c3nc4cc(C(=N)N)ccc4[nH]3)cc2)cc1` [Compound 94], with “+”.
The value for `COC(=O)C(CCOc1ccc(C(=N)NO)cc1)CCOc1ccc(C(=N)NO)cc1` (centres unmarked) [Compound 95] was “+”; that for `CCC(C)NC(=N)c1ccc(OCCCCCOc2cccc(C3=NC4C=C(C(=N)NC(C)C)C=CC4N3)c2)cc1.Cl.Cl.Cl` (centres unmarked) [Compound 96] was “+”.
For `Cn1c(CCCCc2nc3cc(C(=N)N)ccc3n2C)nc2cc(C(=N)N)ccc21` [Compound 97], the “MS Assay” value is reported as “+”.
With `N=C(N)c1ccc(NC(=O)CC(=O)Nc2ccc(C(N)N)cc2)cc1` [Compound 98], the “MS Assay” value was “+”.
Take `N=C(N)c1ccc(-c2ccc(-c3ccc(C(=N)N)cc3)o2)cc1` [Compound 99]: the “MS Assay” value is listed as “+”.
Then `CC(C)NC(=N)c1ccc(-c2ccc(-c3ccc(C(=N)NC(C)C)cc3)o2)cc1` [Compound 100], with “+”.
The value for `Cc1nc(-c2ccc(C(=N)N)cc2)cc(-c2ccc(C(=N)N)cc2)n1` [Compound 106] was “+”; that for `Cn1c(-c2ccc(C(=N)N)cc2)ccc1-c1ccc(C(=N)N)cc1` [Compound 108] was “+”; that for `N=C(N)c1ccc2nc(-c3ccc4cc(-c5nc6ccc(C(=N)N)cc6[nH]5)ccc4c3)[nH]c2c1` [Compound 110] was “+”.
The value for `N=C(N)c1ccc2nc(-c3ccc(-c4ccc([N+](=O)[O-])cc4)o3)[nH]c2c1` [Compound 111] was “+”.
As to `N=C(N)c1ccc2nc(-c3ccc(-c4ccc(-c5nc6ccc(C(=N)N)cc6[nH]5)cc4)cc3)[nH]c2c1` [Compound 113], the “MS Assay” value is given as “+”.
Turning to `Cc1cc(C(=N)N)ccc1-c1ccc(-c2ccc(C(=N)N)cc2C)o1` [Compound 118], the “MS Assay” value is on record as “−”.
Then `N=C(N)c1ccc2[nH]c(-c3ccc4c(=O)cc(-c5ccccc5)oc4c3)nc2c1` [Compound 119], with “+”.
`N=C(N)c1ccc2nc(-c3ccc(CCc4ccc(F)cc4)cc3)[nH]c2c1` [Compound 126]: the “MS Assay” value was “+”.
Then `N=C(N)c1ccc(-c2ccc(-c3nc4cc(C(=N)N)ccc4o3)o2)cc1` [Compound 129], with “+”; and `Cc1cc(C(=N)N)ccc1-c1ccc(-c2nc3ccc(C(=N)N)cc3[nH]2)o1` [Compound 131], with “+”.
As to `CC(=N)Nc1ccc(-c2ccc(-c3ccc(NC(C)=N)cc3C)o2)c(C)c1` [Compound 135], the “MS Assay” value is reported as “+”.
As for `N=C(Nc1ccc(-c2ccc(-c3ccc(NC(=N)c4ccccn4)cc3O)o2)c(O)c1)c1ccccn1` [Compound 136], the “MS Assay” value is recorded as “+”.
